Assay results from patent US20240360157A1, “TYK2 INHIBITORS” (BIOGEN MA INC., priority 2021, published 2024).
Structures can show the parent of a compound that is named as a salt.

Columns and labels:
Format in all cases: biochemical
[1] = target: human TYK2 catalytic kinase (JH1) domain (Homo sapiens (Human), UniProt P29597); assay: ADP-Glo Kinase Assay, recombinant TYK2 catalytic kinase (JH1) domain; details: recombinant JH1 domain 2 nM, 10 μM ATP, JAK3-974 peptide, mean, read-out: TYK2 biochem IC50 (nM) Mean
Method: (§1) Compounds of the disclosure were assessed for their ability to inhibit TYK2, JAK1, JAK2, and JAK3 activity. The inhibitory properties of the compounds of the disclosure described herein can be evidenced by testing in any one of the following protocols.
(§2) The kinase activity of recombinantly generated catalytic kinase (also known as JH1) domain of human JAK1, JAK2, JAK3 and TYK2 were evaluated in a plate-based assay using the ADP-Glo™ Kinase Assay platform. Specifically, 4 nM of recombinant JAK1 kinase domain is used to phosphorylate 50 μM of a JAK3-342 (sequence ALVDGYFRLTT) peptide in the presence of 35 μM ATP. Catalytic activities of recombinant JAK2, JAK3 and TYK2 kinase domain (0.2, 0.3 and 2 nM, respectively) are evaluated by the phosphorylation status of the JAK3-974 (50 μM; sequence LPLDKDYYVVR) peptide with the addition of ATP (15, 4 and 10 μM, respectively). The reactions proceed for 100 minutes and the catalytic activity is quantified by first depleting the unused ATP, converting the hydrolyzed ADP into ATP to generate luminescence in a luciferase reaction; which is the basis of the ADP-Glo platform. Compounds are tested at either 10 μM or 1 μM top concentration, 11 points of 3-fold dilution. The data is normalized and the percent activity versus log concentration of compound is fitted with a 4-parameter logistic model to generate a curve and an IC50 value.

[2] = target: human JAK3 catalytic kinase (JH1) domain (Homo sapiens (Human), UniProt P52333); assay: ADP-Glo Kinase Assay, recombinant JAK3 catalytic kinase (JH1) domain; details: recombinant JH1 domain 0.3 nM, 4 μM ATP, JAK3-974 peptide, mean, read-out: JAK3 biochem IC50 (nM) Mean
Method: as §1, §2

[3] = target: human JAK1 catalytic kinase (JH1) domain (Homo sapiens (Human), UniProt P23458); assay: ADP-Glo Kinase Assay, recombinant JAK1 catalytic kinase (JH1) domain; details: recombinant JH1 domain 4 nM, 35 μM ATP, JAK3-342 peptide, mean, read-out: JAK1 biochem IC50 (nM) Mean
Method: as §1, §2

[4] = target: human JAK2 catalytic kinase (JH1) domain (Homo sapiens (Human), UniProt O60674); assay: ADP-Glo Kinase Assay, recombinant JAK2 catalytic kinase (JH1) domain; details: recombinant JH1 domain 0.2 nM, 15 μM ATP, JAK3-974 peptide, mean, read-out: JAK2 biochem IC50 (nM) Mean
Method: as §1, §2

Chain of human TYK2 catalytic kinase (JH1) domain (P29597 897-1176): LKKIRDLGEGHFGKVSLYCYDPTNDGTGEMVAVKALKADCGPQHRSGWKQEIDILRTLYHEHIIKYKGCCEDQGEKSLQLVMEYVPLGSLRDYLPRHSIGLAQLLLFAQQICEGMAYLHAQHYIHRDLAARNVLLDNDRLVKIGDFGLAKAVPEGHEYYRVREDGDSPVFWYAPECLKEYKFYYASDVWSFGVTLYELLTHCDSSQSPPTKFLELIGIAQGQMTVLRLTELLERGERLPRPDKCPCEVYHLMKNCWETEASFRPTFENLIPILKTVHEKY
Chain of human JAK1 catalytic kinase (JH1) domain (P23458 875-1153): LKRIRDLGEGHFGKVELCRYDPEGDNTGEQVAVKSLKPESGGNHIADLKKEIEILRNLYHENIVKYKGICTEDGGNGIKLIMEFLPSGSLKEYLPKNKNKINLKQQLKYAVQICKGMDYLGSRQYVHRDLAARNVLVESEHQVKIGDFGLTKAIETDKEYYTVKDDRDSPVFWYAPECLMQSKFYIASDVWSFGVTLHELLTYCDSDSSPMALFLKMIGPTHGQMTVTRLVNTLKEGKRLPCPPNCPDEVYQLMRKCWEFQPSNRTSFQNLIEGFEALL
Chain of human JAK2 catalytic kinase (JH1) domain (O60674 849-1124): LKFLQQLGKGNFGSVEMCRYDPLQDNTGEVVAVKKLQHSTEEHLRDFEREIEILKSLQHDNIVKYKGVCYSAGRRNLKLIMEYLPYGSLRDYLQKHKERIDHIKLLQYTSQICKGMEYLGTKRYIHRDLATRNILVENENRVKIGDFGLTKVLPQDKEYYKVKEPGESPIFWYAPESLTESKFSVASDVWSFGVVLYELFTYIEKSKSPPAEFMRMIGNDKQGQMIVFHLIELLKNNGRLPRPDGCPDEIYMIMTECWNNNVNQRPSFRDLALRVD
Chain of human JAK3 catalytic kinase (JH1) domain (P52333 822-1111): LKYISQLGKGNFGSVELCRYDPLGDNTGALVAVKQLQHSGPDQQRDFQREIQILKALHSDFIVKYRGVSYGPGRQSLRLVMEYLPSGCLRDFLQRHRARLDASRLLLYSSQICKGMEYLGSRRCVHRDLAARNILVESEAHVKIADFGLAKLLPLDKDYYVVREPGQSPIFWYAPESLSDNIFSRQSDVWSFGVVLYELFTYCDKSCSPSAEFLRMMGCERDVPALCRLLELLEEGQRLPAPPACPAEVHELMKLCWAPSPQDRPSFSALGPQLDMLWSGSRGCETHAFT

SMILES | IC50 [1] [nM] | IC50 [2] [nM] | IC50 [3] [nM] | IC50 [4] [nM]
O=C([C@@H]1C[C@H]1F)N1C2CCC1CN(c1ccnn3cc(-c4ccnc(C(F)(F)F)c4)cc13)C2 [Example 112, ((1S,2R)-2-fluorocyclopropyl)(3-(6-(2-(trifluoromethyl)pyridin-4-yl)pyrrolo[1,2-b]pyridazin-4-yl)-3,8-diazabicyclo[3.2.1]octan-8-yl)methanone] | 2.9 | 835 | 37 | 38
O=C(C1CC1)N1C2CCC1CN(c1ncnn3cc(-c4cccnc4)cc13)C2 [Example 183] | 557 | 8640 | 3290 | 10000
O=C(C1C(F)(F)C12CCC2)N1C2CCC1CN(c1ncnn3cc(-c4cnn(C(F)F)c4)cc13)C2 (centres unmarked) [Example 7, (3-(6-(1-(difluoromethyl)-1H-pyrazol-4-yl)pyrrolo[2,1-f][1,2,4]triazin-4-yl)-3,8-diazabicyclo[3.2.1]octan-8-yl)(2,2-difluorospiro[2.3]hexan-1-yl)methanone] | 156 | 6300 | 960 | 3960
CNc1cc(-c2cc3c(N4CC5CCC(C4)N5C(=O)[C@@H]4C[C@H]4F)ccnn3c2)ccn1 [Example 99, ((1S,2R)-2-fluorocyclopropyl)(3-(6-(2-(methylamino)pyridin-4-yl)pyrrolo[1,2-b]pyridazin-4-yl)-3,8-diazabicyclo[3.2.1]octan-8-yl)methanone] | 0.7 | 211 | 10 | 18
Cc1c(-c2cc3c(N4CC5CCC(C4)N5C(=O)C4CC4)ncnn3c2)cnn1C [Example 168] | 317 | 7690 | 5470 | 7850
Cc1cnc(-c2cc3c(N4CC5CCC(C4)N5C(=O)[C@@H]4C[C@H]4F)ccnn3c2)cn1 [Example 131, ((1S,2R)-2-fluorocyclopropyl)(3-(6-(5-methylpyrazin-2-yl)pyrrolo[1,2-b]pyridazin-4-yl)-3,8-diazabicyclo[3.2.1]octan-8-yl)methanone] | 50.7 | 5470 | 562 | 672
COc1cc(-c2cc3c(N4CC5CCC(C4)N5C(=O)[C@@H]4C[C@H]4F)c(F)cnc3[nH]2)ccn1 [Example 139, (3-(5-fluoro-2-(2-methoxypyridin-4-yl)-1H-pyrrolo[2,3-b]pyridin-4-yl)-3,8-diazabicyclo[3.2.1]octan-8-yl)((1S,2R)-2-fluorocyclopropyl)methanone] | 5.5 | 144 | 39 | 74
Cn1cc(-c2cc3c(N4CC5CCC(C4)N5C(=O)CC#N)ccnn3c2)cn1 [Example 23, 3-(3-(6-(1-methyl-1H-pyrazol-4-yl)pyrrolo[1,2-b]pyridazin-4-yl)-3,8-diazabicyclo[3.2.1]octan-8-yl)-3-oxopropanenitrile] | 9.8 | 346 | 137 | 117
O=C(C1CC1)N1C2CCC1CN(c1ncnn3cc(-c4cnn(C(F)(F)F)c4)cc13)C2 [Example 154] | 490 | 10000 | 2950 | 10000
Cn1cc(-c2nc3c(N4CC5CCC(C4)N5C(=O)[C@@H]4CC4(F)F)ccnc3[nH]2)cn1 [Example 201, ((S)-2,2-difluorocyclopropyl)(3-(2-(1-methyl-1H-pyrazol-4-yl)-3H-imidazo[4,5-b]pyridin-7-yl)-3,8-diazabicyclo[3.2.1]octan-8-yl)methanone] | 1.5 | 164 | 14 | 9
Cn1cc(-c2cc3c(N4CC5CCC(C4)N5C(=O)C4(F)CC4)ncnn3c2)cn1 [Example 64, (1-fluorocyclopropyl)(3-(6-(1-methyl-1H-pyrazol-4-yl)pyrrolo[2,1-f][1,2,4]triazin-4-yl)-3,8-diazabicyclo[3.2.1]octan-8-yl)methanone] | 289 | 1110 | 1150 | 5210
O=C([C@H]1C[C@@H](C(F)(F)F)C1)N1C2CCC1CN(c1ncnn3cc(-c4cnn(C(F)F)c4)cc13)C2 [Example 29, (3-(6-(1-(difluoromethyl)-1H-pyrazol-4-yl)pyrrolo[2,1-f][1,2,4]triazin-4-yl)-3,8-diazabicyclo[3.2.1]octan-8-yl)((1s,3s)-3-(trifluoromethyl)cyclobutyl)methanone] | 238 | 7470 | 774 | 4250
O=C([C@@H]1C[C@H]1F)N1C2CCC1CN(c1ccnn3cc(-c4ccnnc4)cc13)C2 [Example 109, ((1S,2R)-2-fluorocyclopropyl)(3-(6-(pyridazin-4-yl)pyrrolo[1,2-b]pyridazin-4-yl)-3,8-diazabicyclo[3.2.1]octan-8-yl)methanone] | 3.2 | 847 | 38 | 45
O=C([C@H]1CC1(F)F)N1C2CCC1CN(c1ncnn3cc(-c4cnn(C(F)F)c4)cc13)C2 (single isomer, unassigned) [Example 77] | 46.3 | 8880 | 1290 | 1410
O=C(C1CC1)N1C2CCC1CN(c1c(F)cnn3cc(-c4cnn(C(F)F)c4)cc13)C2 [Example 140, cyclopropyl(3-(6-(1-(difluoromethyl)-1H-pyrazol-4-yl)-3-fluoropyrrolo[1,2-b]pyridazin-4-yl)-3,8-diazabicyclo[3.2.1]octan-8-yl)methanone] | 56 | 738 | 834 | 1480
O=C([C@@H]1C[C@H]1F)N1C2CCC1CN(c1ccnn3cc(-c4ccc(C(F)(F)F)nc4)cc13)C2 [Example 117, ((1S,2R)-2-fluorocyclopropyl)(3-(6-(6-(trifluoromethyl)pyridin-3-yl)pyrrolo[1,2-b]pyridazin-4-yl)-3,8-diazabicyclo[3.2.1]octan-8-yl)methanone] | 5.2 | 878 | 67 | 64
COc1cc(-c2cn3ncc(F)c(N4CC5CCC(C4)N5C(=O)[C@@H]4C[C@H]4F)c3n2)ccn1 (stereo in doubt) [Example 142, (3-(7-fluoro-2-(2-methoxypyridin-4-yl)imidazo[1,2-b]pyridazin-8-yl)-3,8-diazabicyclo[3.2.1]octan-8-yl)((1S,2R)-2-fluorocyclopropyl)methanone] | 19.6 | 514 | 46 | 270
Cn1cc(-c2cc3c(N4CC5CCC(C4)N5C(=O)C4CC4)ncnn3c2)cn1 [Example 146, cyclopropyl(3-(6-(1-methyl-1H-pyrazol-4-yl)pyrrolo[2,1-f][1,2,4]triazin-4-yl)-3,8-diazabicyclo[3.2.1]octan-8-yl)methanone] | 166 | 3240 | 1880 | 5850
O=C([C@@H]1C[C@H]1F)N1C2CCC1CN(c1ccnc3[nH]c(-c4ccc(C(F)F)nc4)nc13)C2 [Example 206] | 6.8 | 744 | 24 | 35
Cc1c(-c2cnn(C)c2)[nH]c2nccc(N3CC4CCC(C3)N4C(=O)[C@@H]3C[C@H]3F)c12 [Example 249, ((1S,2R)-2-fluorocyclopropyl)(3-(3-methyl-2-(1-methyl-1H-pyrazol-4-yl)-1H-pyrrolo[2,3-b]pyridin-4-yl)-3,8-diazabicyclo[3.2.1]octan-8-yl)methanone] | 19 | 2810 | 1240 | 251
O=C([C@@H]1C[C@H]1F)N1C2CCC1CN(c1ccnn3cc([C@H]4CC4(F)F)cc13)C2 (single isomer, unassigned) [Example 135] | 125 | ≥ 10000 | 2010 | 8220
C[C@]1(F)C[C@H](C(=O)N2C3CCC2CN(c2ncnn4cc(-c5cnn(C(F)F)c5)cc24)C3)C1 [Example 34, (3-(6-(1-(difluoromethyl)-1H-pyrazol-4-yl)pyrrolo[2,1-f][1,2,4]triazin-4-yl)-3,8-diazabicyclo[3.2.1]octan-8-yl)((1r,3r)-3-fluoro-3-methylcyclobutyl)methanone trifluoroacetate] | 510 | 9510 | 3190 | 7520
COc1cc(-c2cc3c(N4CC5CCC(C4)N5C(=O)[C@@H]4C[C@H]4F)ccnn3c2)ncn1 [Example 105, ((1S,2R)-2-fluorocyclopropyl)(3-(6-(6-methoxypyrimidin-4-yl)pyrrolo[1,2-b]pyridazin-4-yl)-3,8-diazabicyclo[3.2.1]octan-8-yl)methanone] | 28.6 | 6900 | 356 | 190
